Data taken from US11702418B2, “SOS1 inhibitors” (priority 2019, dated 2023).
Counter-ions that a name gives are not always drawn.

Each compound was assayed against recombinant human SOS1 polypeptide (amino acids 560-1049) (Homo sapiens (Human), UniProt Q07889) (assay: biochemical). Details: HTRF displacement, Cy5 labelled tracer, Morrison equation for competitive binding; read-out: Ki, Inhibition of Labeled Tracer Binding to SOS1.
Format: binding

Sequence of recombinant human SOS1 polypeptide (amino acids 560-1049) (Q07889 560-1049): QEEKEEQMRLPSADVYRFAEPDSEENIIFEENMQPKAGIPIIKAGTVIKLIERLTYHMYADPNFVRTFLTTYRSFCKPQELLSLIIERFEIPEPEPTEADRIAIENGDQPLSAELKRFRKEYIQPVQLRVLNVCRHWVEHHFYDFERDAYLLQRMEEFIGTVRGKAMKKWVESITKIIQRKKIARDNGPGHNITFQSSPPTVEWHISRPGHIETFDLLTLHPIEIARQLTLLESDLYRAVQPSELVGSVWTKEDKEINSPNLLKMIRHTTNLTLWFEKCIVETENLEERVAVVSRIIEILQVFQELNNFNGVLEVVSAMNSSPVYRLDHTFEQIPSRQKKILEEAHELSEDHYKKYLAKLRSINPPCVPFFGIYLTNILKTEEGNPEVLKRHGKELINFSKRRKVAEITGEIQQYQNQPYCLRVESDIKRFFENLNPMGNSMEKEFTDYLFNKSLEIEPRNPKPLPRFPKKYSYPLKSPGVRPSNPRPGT

SMILES	Ki
CNCc1cccc([C@@H](C)Nc2nnc(C)c3cc(OC)c(OC)cc23)c1C [Example 5-3, (R)-6,7-dimethoxy-4-methyl-N-(1-(2-methyl-3-((methylamino)methyl)phenyl)ethyl)phthalazin-1-amine]	390 nM
CNCc1cccc([C@@H](C)Nc2nnc(C)c3ccc(N4CCOCC4)cc23)c1C [Example 6-8, (R)-4-methyl-N-(1-(2-methyl-3-((methylamino)methyl)phenyl)ethyl)-7-morpholinophthalazin-1-amine]	39.2 nM
Cc1c(C#N)cccc1[C@@H](C)Nc1nnc(C)c2ccc(N3CCN4CCC[C@@H]4C3)cc12 [Example 10-81, 3-((R)-1-((7-((R)-hexahydropyrrolo[1,2-a]pyrazin-2(1H)-yl)-4-methylphthalazin-1-yl)amino)ethyl)-2-methylbenzonitrile]	0.9 nM
Cc1c(C#N)cccc1[C@@H](C)Nc1nnc(C)c2ccc(N3CC4(CCCN4C)C3)cc12 [Example 10-84, (R)-2-methyl-3-(1-((4-methyl-7-(5-methyl-2,5-diazaspiro[3.4]octan-2-yl)phthalazin-1-yl)amino)ethyl)benzonitrile]	2.01 nM
Cc1nnc(N[C@H](C)c2cccc(C(F)(F)F)c2F)c2cc(N3CCN4CCOC[C@@H]4C3)ncc12 [Example 12-63]	0.83 nM
Cc1nnc(N[C@H](C)c2cccc(C(F)(F)F)c2F)c2cc(N3CCN(C)CC3)ncc12 [Example 12-67]	0.36 nM
CCN1CCN(c2cc3c(N[C@H](C)c4cccc(C(F)(F)F)c4F)nnc(C)c3cn2)CC1 [Example 12-68]	0.37 nM
Cc1c(C#N)cccc1[C@@H](C)Nc1nnc(C)c2cnc(N3CC[C@H](N(C)C)C3)cc12 [Example 12-69]	0.93 nM
Cc1c(C#N)cccc1[C@@H](C)Nc1nnc(C)c2cnc(N3CC4(CCOC4)C3)cc12 [Example 12-71]	4.48 nM
Cc1c(C#N)cccc1[C@@H](C)Nc1nnc(C)c2cnc(N3CCN4CCC[C@@H]4C3)cc12 [Example 12-73]	1.67 nM
Cc1nnc(N[C@H](C)c2cccc(F)c2Cl)c2cc(N3CCN4CCOC[C@@H]4C3)ncc12 [Example 12-74]	10.5 nM
Cc1nnc(N[C@H](C)c2cccc(F)c2Cl)c2cc(N3CC4CC(C3)O4)ncc12 [Example 12-77]	28.5 nM
Cc1c(F)cccc1[C@@H](C)Nc1nnc(C)c2cnc(N3CC(C)(O)C3)cc12 [Example 12-81]	29 nM
Cc1c(C#N)cccc1[C@@H](C)Nc1nnc(C)c2cnc(N3CCN4CCCC[C@@H]4C3)cc12 [Example 12-86]	0.98 nM
Cc1c(C#N)cccc1[C@@H](C)Nc1nnc(C)c2cnc(N3CC(C)(N4CCOCC4)C3)cc12 [Example 12-87]	3.17 nM
Cc1c(C#N)cccc1[C@@H](C)Nc1nnc(C)c2cnc(N3CC4(CCCN4C)C3)cc12 [Example 12-88]	2.03 nM
Cc1c(C#N)cccc1[C@@H](C)Nc1nnc(C)c2cnc(N3C[C@H]4CC[C@@H]3CN4CCO)cc12 [Example 12-89]	0.25 nM
Cc1nnc(N[C@H](C)c2cccc(F)c2F)c2cc(N3CC4CC(C3)O4)ncc12 [Example 12-98]	19 nM
Cc1nnc(N[C@H](C)c2cccc(C(F)F)c2F)c2cc(N3C[C@H]4C[C@@H]3CO4)ncc12 [Example 12-99]	0.93 nM
Cc1nnc(N[C@H](C)c2cccc(C(F)F)c2F)c2cc(N3CCN4CCOC[C@@H]4C3)ncc12 [Example 12-100]	1.07 nM

SMILES	Ki
CCN1CCN(c2cc3c(N[C@H](C)c4cccc(C(F)F)c4F)nnc(C)c3cn2)CC1 [Example 12-102]	0.25 nM
Cc1c(C#N)cc(F)cc1[C@@H](C)Nc1nnc(C)c2cnc(N3CC(C)(O)C3)cc12 [Example 12-107]	35.6 nM
Cc1c(C#N)cc(F)cc1[C@@H](C)Nc1nnc(C)c2cnc(N3CC(C)(N(C)C)C3)cc12 [Example 12-108]	22.1 nM
Cc1c([C@@H](C)Nc2nnc(C)c3cnc(N4C[C@H]5C[C@@H]4CO5)cc23)cc(F)cc1C(F)(F)F [Example 12-109]	2.61 nM
Cc1c([C@@H](C)Nc2nnc(C)c3cnc(N4CC(C)(N(C)C)C4)cc23)cc(F)cc1C(F)(F)F [Example 12-110]	3.54 nM
Cc1c([C@@H](C)Nc2nnc(C)c3cnc(N4CC(C)(O)C4)cc23)cc(F)cc1C(F)(F)F [Example 12-111]	8.09 nM
Cc1c([C@@H](C)Nc2nnc(C)c3cnc(N4CCN5CCOC[C@@H]5C4)cc23)cc(F)cc1C(F)(F)F [Example 12-112]	2.2 nM
Cc1c([C@@H](C)Nc2nnc(C)c3cnc(N4CC5CC(C4)O5)cc23)cc(F)cc1C(F)(F)F [Example 12-113]	2.62 nM
Cc1nnc(N[C@H](C)c2cc(F)cc(C#N)c2F)c2cc(N3C[C@H]4C[C@@H]3CO4)ncc12 [Example 12-114]	69.3 nM
Cc1nnc(N[C@H](C)c2cc(F)cc(C#N)c2F)c2cc(N3CCN4CCOC[C@@H]4C3)ncc12 [Example 12-120]	49.8 nM
Cc1nnc(N[C@H](C)c2cc(F)cc(C#N)c2F)c2cc(N3CC4CC(C3)O4)ncc12 [Example 12-121]	39.2 nM
Cc1nnc(N[C@H](C)c2cc(F)cc(C#N)c2F)c2cc(N3CC(C)(N(C)C)C3)ncc12 [Example 12-122]	170 nM
Cc1nnc(N[C@H](C)c2cc(F)cc(C#N)c2F)c2cc(N3CCC(C)(N(C)C)CC3)ncc12 [Example 12-123]	50.4 nM
Cc1c(F)cccc1[C@@H](C)Nc1nnc(C)c2cnc(N3CC4CC(C3)O4)cc12 [Example 12-126]	14 nM
Cc1nnc(N[C@H](C)c2cccc(C#N)c2C(F)(F)F)c2cc(N3C[C@H]4C[C@@H]3CO4)ncc12 [Example 12-127]	6.08 nM
Cc1cccc([C@@H](C)Nc2nnc(C)c3cnc(N4CC5CC(C4)O5)cc23)c1F [Example 12-134]	7.1 nM
CNCc1nnc(N[C@H](C)c2cccc(C#N)c2C)c2cc(N3C[C@H]4C[C@@H]3CO4)ncc12 [Example 14-3, 3-((R)-1-((7-((1R,4R)-2-oxa-5-azabicyclo[2.2.1]heptan-5-yl)-4-((methylamino)methyl)pyrido[3,4-d]pyridazin-1-yl)amino)ethyl)-2-methylbenzonitrile]	14.5 nM
Cc1nnc(N[C@H](C)c2cc(N)cc(C(F)(F)F)n2)c2cc(N3CC(C)(N(C)C)C3)ncc12 [Example 16-11, (R)-N-(1-(4-amino-6-(trifluoromethyl)pyridin-2-yl)ethyl)-7-(3-(dimethylamino)-3-methylazetidin-1-yl)-4-methylpyrido[3,4-d]pyridazin-1-amine]	108 nM
Cc1nnc(N[C@H](C)c2cc(N)cc(C(F)(F)F)n2)c2cc(N3CCN(C)CC3)ncc12 [Example 16-12, (R)-N-(1-(4-amino-6-(trifluoromethyl)pyridin-2-yl)ethyl)-4-methyl-7-(4-methylpiperazin-1-yl)pyrido[3,4-d]pyridazin-1-amine]	9.58 nM

Same assay, conditions: read-out: Ki, Inhibition of Labeled Tracer Binding to SOS1

SMILES	Ki
Cc1c(C#N)cccc1[C@@H](C)Nc1nnc(C)c2ccc(N3CC4(CCOC4)C3)cc12 [Example 10-80, (R)-2-methyl-3-(1-((4-methyl-7-(6-oxa-2-azaspiro[3.4]octan-2-yl)phthalazin-1-yl)amino)ethyl)benzonitrile Hydrochloride salt]	5.75 nM
Cc1c(C#N)cccc1[C@@H](C)Nc1nnc(C)c2ccc(N3CC(C)(N4CCOCC4)C3)cc12 [Example 10-83, (R)-2-methyl-3-(1-((4-methyl-7-(3-methyl-3-morpholinoazetidin-1-yl)phthalazin-1-yl)amino)ethyl)benzonitrile Formate salt]	4.54 nM
